Measured values from US20140235649A1, “USE OF PHOSPHATASE INHIBITORS OR HISTONE DEACETYLASE INHIBITORS TO TREAT DISEASES CHARACTERIZED BY LOSS OF PROTEIN FUNCTION” (LIXTE BIOTECHNOLOGY, INC., priority 2011, published 2014).

Columns and labels:
HDACs = assay: Western blot for acetylated histone 3 in type 1 GD fibroblasts; details: GD type 1 fibroblasts, 2.5 μM
Method: Cell lines were obtained from the Development and Metabolic Neurology Branch of the National Institute of Neurological Disorders and Stroke (NINDS). Type 1 GD fibroblast is homozygous for N370S mutation. Type II and III GD fibroblasts are homozygous for L444P mutation.
Cell pellets were lysed in T-PER Tissue Protein Extraction Reagent solution (T-PER) (Thermo; Waltham, Mass.), sonicated, and centrifuged. Protein was determined in the supernatant solution by using the Bio-Rad Protein Assay kit (Bio-Rad; Hercules, Calif.). […] Blocking buffer solution was used before immunoblotting with primary antibody. Expression of GBA was determined by Western blotting using monoclonal antibody at a dilution of 1:1,000. Acetylated histone 3 rabbit antibody (Cell Signaling Technology; Beverley, Mass.) was used to detect HDACi function. […] Detection of antibodies was performed with a horseradish peroxidase-conjugated species-specific secondary antibody and an enhanced chemiluminescence system. Densitometric analysis using image software (NIH ImageJ software; Bethesda, Md.) was used to quantify the expression of GBA.

HDAC = HDAC activity assay in DAOY cells; type: cell-based; details: DAOY medulloblastoma cells, 1 h treatment
Method: Cultured DAOY cells, a medulloblastoma cell line, were plated in […] flasks. When the cells were 80% confluent, the media was replaced with media containing retinoic acid (RA) (5.0 μm), Trichostatin A (1 μm), SAHA (2.0 μm), LB-205 (5.0 μm), LB-205 ([…]), or PBS control. After 1 h, the cells were washed 3 times with a 0.9% normal saline solution. Cells were lysed in Tissue protein extraction reagent (T-PER) (Pierce Biotechnology; Rockford, Ill.), sonicated, and centrifuged. Nuclear cellular extracts were assayed from 0 to 50 μg per well using HDAC Assay Kit (Active Motif; Carlsbad, Calif.).

acetylated histone 3 = assay: Western blot for acetylated histone 3 in DAOY xenografts; type: in vivo, SCID mice
[1] = system: missense glucocerebrosidase; details: previously found (REF); cited from earlier work

For O=C(CCCCCNC(=O)c1ccccc1S)Nc1cccnc1 [LB-205], the “HDAC inhibition (acetylated histone 3)” value (HDACs) was “inhibited HDACs”, the HDAC inhibition (HDAC) was “dose-dependent HDAC inhibition” and the “HDAC inhibition (acetylated histone 3) lasting longer than that of SAHA” value (acetylated histone 3; DAOY xenografts, in vivo) was “at least 4 hours”. For the same molecule, the “effectiveness by Western blotting for Ac-H3” value (acetylated histone 3; FIG. 4D) was “longer effectiveness” and the “co-translational degradation of missense glucocerebrosidase” value [1] was “protect missense glucocerebrosidase from co-translational degradation”.
